The values that follow come from patent US12571793B2, “Method for evaluating biofilm formation, and invertebrate for use in evaluating biofilm formation” (MEIJI PHARMACEUTICAL UNIVERSITY, priority 2020, dated 2026).

The assay concerns C. albicans strain SC5314. The experiment in a line: Test Example 5: suppression effect of antifungal drugs on biofilm formation on polyurethane fibers in silkworms, drug given 12 hours after inoculation. It is filed as in vivo, Candida albicans (in silkworm). The conditions noted are these: antifungal drug administered 12 hours after inoculation of C. albicans; fibers extracted 24 hours after inoculation; compared with physiological saline. The method, then: Biofilms formed on the surface of the polyurethane fibers after the culture were stained with crystal violet, and the biofilms were quantified. The biofilms were stained as follows. Each of the polyurethane fibers were moved to a 1.5-ml tube and washed with 1 ml of distilled water twice. Then, 500 μl of an aqueous 0.1% crystal violet solution was added, and the polyurethane fiber was placed at room temperature for 20 to 60 minutes. The stain solution was discarded, and the polyurethane fiber were washed with 1 ml of distilled water 3 times. The polyurethane fibers were washed with 1 ml of ethanol twice and then air-dried. The polyurethane fibers were observed under a microscope (×10, CH30, Olympus Corporation), and photographs were taken. Then, 500 μl of 33% acetic acid solution was added, and the polyurethane fibers were left to stand at room temperature for 2 hours or more. The absorbance (OD590) of the sample to which 500 μl of distilled water was added to adjust the total volume to 1 ml was measured.
Next, it was examined whether biofilms by C. albicans were formed on the surface of the polyurethane fibers in the bodies of silkworms. Silkworms in which the polyurethane fibers were inserted were inoculated with 50 μl of physiological saline solution (saline) or 50 μl of a suspension of C. albicans strain SC5314 (7×10^7 cells/ml) and bred at 27° C. for 24 hours. […]

In the case of `C[C@@H]1[C@H](O)[C@@H](C)/C=C/C=C/C=C/C=C/C=C/C=C/C=C/[C@H](O[C@@H]2O[C@H](C)[C@@H](O)[C@H](N)[C@@H]2O)C[C@@H]2O[C@](O)(C[C@@H](O)C[C@@H](O)[C@H](O)CC[C@@H](O)C[C@@H](O)CC(=O)O[C@H]1C)C[C@H](O)[C@H]2C(=O)O` [amphotericin B], the “biofilm formation on the polyurethane fiber in the bodies of the silkworms (crystal violet, absorbance 590 nm)” value is “significantly suppressed”.
